“And” between values parts separate entries of the source, which are not always exact repeats. Equal entries are not always repeated.
Columns and labels:
[1] = biological target: T1, BCL-2/PROTAC/VCB ternary complex (Homo sapiens, UniProt P10415+P40337); assay: AlphaLISA ternary complex formation, cell-free, BCL-2; type: binding; details: for AlphaLISA signal, BCL-2/PROTAC/VCB: Fig. 2d raw Alpha reads
T1 construct: pGEX-6P-1-VHL(54-213) (pDL2200) was constructed through Gibson assembly method; made in house; host or cells: bacterial culture (LB broth, IPTG induction)
T1 sequence (P10415 1-211 limits assumed): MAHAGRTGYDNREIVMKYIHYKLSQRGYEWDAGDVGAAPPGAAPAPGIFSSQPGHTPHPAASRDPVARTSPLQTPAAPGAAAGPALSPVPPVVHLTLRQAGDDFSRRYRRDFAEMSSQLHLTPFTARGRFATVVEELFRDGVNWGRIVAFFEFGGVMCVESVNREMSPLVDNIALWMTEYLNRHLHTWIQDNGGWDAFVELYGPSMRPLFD
T1 sequence (P40337 54-213 limits assumed): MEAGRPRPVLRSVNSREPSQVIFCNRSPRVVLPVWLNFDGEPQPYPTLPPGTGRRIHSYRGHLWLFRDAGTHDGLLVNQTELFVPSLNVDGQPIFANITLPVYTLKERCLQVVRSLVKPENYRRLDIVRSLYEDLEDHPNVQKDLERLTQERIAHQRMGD
T1 sequence (Q15369 17-112 partner limits assumed): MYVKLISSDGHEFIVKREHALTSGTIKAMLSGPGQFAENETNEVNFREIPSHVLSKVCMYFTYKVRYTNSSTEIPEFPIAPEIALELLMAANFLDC
T1 sequence (Q15370 whole entry partner): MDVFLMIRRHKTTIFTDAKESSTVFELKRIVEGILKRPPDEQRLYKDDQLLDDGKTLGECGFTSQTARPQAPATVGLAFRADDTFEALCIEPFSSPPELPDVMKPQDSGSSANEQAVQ
Procedure, shortened: (§1)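 Cell-free AlphaLISA: 5 nM His-tagged BCL-xL or BCL-2 plus 5 nM GST-VCB incubated with fourfold serially diluted compound 30 min at room temperature. Glutathione donor and His acceptor beads (20 µg/ml each) then added for 15 and 45 min; AlphaLISA signal plotted against compound concentration.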

[2] = biological target: T2, BCL-xL/PROTAC/VHL-ELOC-ELOB (VCB) ternary complex (Homo sapiens, UniProt P40337+Q07817); assay: AlphaLISA ternary complex formation, cell-free, BCL-xL; type: binding; details: for AlphaLISA signal, BCL-xL/PROTAC/VCB: Fig. 2c raw Alpha reads
T2 construct: pGEX-6P-1-VHL(54-213) (pDL2200) was constructed through Gibson assembly method; made in house; host or cells: bacterial culture (LB broth, IPTG induction)
T2 sequence (Q07817 1-212 limits assumed): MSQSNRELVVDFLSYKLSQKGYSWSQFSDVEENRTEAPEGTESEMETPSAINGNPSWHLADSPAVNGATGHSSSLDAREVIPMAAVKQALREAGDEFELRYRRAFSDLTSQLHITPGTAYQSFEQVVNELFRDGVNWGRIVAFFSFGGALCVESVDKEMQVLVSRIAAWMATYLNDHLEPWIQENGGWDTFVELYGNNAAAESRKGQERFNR
T2 sequence (P40337 54-213 limits assumed): as the sequence (P40337 54-213 limits assumed) above
T2 sequence (Q15369 17-112 partner limits assumed): as the sequence (Q15369 17-112 partner limits assumed) above
T2 sequence (Q15370 whole entry partner): as the sequence (Q15370 whole entry partner) above
Procedure, shortened: as §1

[3] = compound 200000 nM, 2 technical replicates

Structure (SMILES): Cc1ncsc1-c1ccc([C@H](C)NC(=O)[C@@H]2C[C@@H](O)CN2C(=O)[C@@H](NC(=O)CCCCCCC(=O)N2CCN(CC3(C)CCC(c4ccc(Cl)cc4)=C(CN4CCN(c5ccc(C(=O)NS(=O)(=O)c6ccc(N[C@H](CCN7CCOCC7)CSc7ccccc7)c(S(=O)(=O)C(F)(F)F)c6)cc5)CC4)C3)CC2)C(C)(C)C)cc1 (stereo partly drawn) [PPC8]
- in vitro ternary complex formation with BCL-2 (in words) ([1]; AlphaLISA, cell-free, Fig. 2d, 3f): stronger ternary complexes
- AlphaLISA signal, BCL-2/PROTAC/VCB ([1]; compound 0.191 nM): 15495 and 15269
- AlphaLISA signal, BCL-2/PROTAC/VCB ([1]; compound 0.763 nM): 16981 and 16694
- AlphaLISA signal, BCL-2/PROTAC/VCB ([1]; compound 3.052 nM): 31764 and 30263
- AlphaLISA signal, BCL-2/PROTAC/VCB ([1]; compound 12.207 nM): 220610 and 232235
- AlphaLISA signal, BCL-2/PROTAC/VCB ([1]; compound 48.828 nM): 1164349 and 1304184
- AlphaLISA signal, BCL-2/PROTAC/VCB ([1]; compound 195.31 nM): 1706795 and 1639825
- AlphaLISA signal, BCL-2/PROTAC/VCB ([1]; compound 781.25 nM): 1791615 and 1848085
- AlphaLISA signal, BCL-2/PROTAC/VCB ([1]; compound 3125 nM): 524010 and 562226
- AlphaLISA signal, BCL-2/PROTAC/VCB ([1]; compound 12500 nM): 80335 and 78686
- AlphaLISA signal, BCL-2/PROTAC/VCB ([1]; compound 50000 nM): 17935 and 18240
- AlphaLISA signal, BCL-2/PROTAC/VCB [1, 3]: 8109 and 11043
- in vitro ternary complex formation with BCL-xL (in words) ([2]; AlphaLISA, cell-free, Fig. 2c, 3e): stronger ternary complexes
- AlphaLISA signal, BCL-xL/PROTAC/VCB ([2]; compound 0.191 nM): 19077 and 19160
- AlphaLISA signal, BCL-xL/PROTAC/VCB ([2]; compound 0.763 nM): 16314 and 16977
- AlphaLISA signal, BCL-xL/PROTAC/VCB ([2]; compound 3.052 nM): 21818 and 20322
- AlphaLISA signal, BCL-xL/PROTAC/VCB ([2]; compound 12.207 nM): 112726 and 99392
- AlphaLISA signal, BCL-xL/PROTAC/VCB ([2]; compound 48.828 nM): 824374 and 896013
- AlphaLISA signal, BCL-xL/PROTAC/VCB ([2]; compound 195.31 nM): 1441307 and 1441293
- AlphaLISA signal, BCL-xL/PROTAC/VCB ([2]; compound 781.25 nM): 1280941 and 1272724
- AlphaLISA signal, BCL-xL/PROTAC/VCB ([2]; compound 3125 nM): 836346 and 758740
- AlphaLISA signal, BCL-xL/PROTAC/VCB ([2]; compound 12500 nM): 257313 and 288328
- AlphaLISA signal, BCL-xL/PROTAC/VCB ([2]; compound 50000 nM): 78225 and 86140
- AlphaLISA signal, BCL-xL/PROTAC/VCB [2, 3]: 21117 and 20625

Source: article PMC8617031, “Development of a BCL-xL and BCL-2 dual degrader with improved anti-leukemic activity,” (Nature Communications, 2021)
